Laboratory results as given in article PMC6858927 (Investigational new drugs, 2019).
Like-named read-outs stand apart in the source and are kept apart here.

[1] = Cohort A: 200mg, cytarabine, Daunorubicin (n=5), Total
[2] = Cohort A: 200mg, cytarabine, Daunorubicin (n=5), grade 1&2
[3] = Cohort A: 200mg, cytarabine, Daunorubicin (n=5), grade 3+
[4] = Cohort B Dose 2: 400mg, Decitabine (n=2), Total
[5] = Cohort B Dose 2: 400mg, Decitabine (n=2), grade 1&2
[6] = Cohort B Dose 2: 400mg, Decitabine (n=2), grade 3+

C1=C/COCc2cc(ccc2OCCN2CCCC2)Nc2nccc(n2)-c2cccc(c2)COC/1 [Pacritinib, 11-(2-pyrrolidin-1-yl-ethoxy)-14,19-dioxa-5,7,26-triaza-tetracyclo[19.3.1.1(2,6). 1(8,12)]heptacosa-1(25),2(26),3,5,8,10,12(27),16,21,23-decaene]
HYPOXIA, patients (%) [1]: 2 (40) | LUNG INFECTION, patients (%) [1]: 1 (20) | LYMPHOCYTE COUNT DECREASED, patients (%) [1]: 3 (60) | MUCOSITIS ORAL, patients (%) [1]: 2 (40) | NAUSEA, patients (%) [1]: 3 (60) | NEUTROPHIL COUNT DECREASED, patients (%) [1]: 2 (40) | PLATELET COUNT DECREASED, patients (%) [1]: 5 (100) | PLEURAL EFFUSION, patients (%) [1]: 1 (20) | PRURITUS, patients (%) [1]: 4 (80) | RASH MACULO-PAPULAR, patients (%) [1]: 2 (40) | RASH, patients (%) [1]: 2 (40) | RESPIRATORY FAILURE, patients (%) [1]: 2 (40) | VOMITING, patients (%) [1]: 0 | WHITE BLOOD CELL DECREASED, patients (%) [1]: 4 (80) | ACTIVATED PARTIAL THROMBOPLASTIN TIME PROLONGED, patients (%) [2]: 1 (20) | ANEMIA, patients (%) [2]: 0 | ANOREXIA, patients (%) [2]: 0 | CONSTIPATION, patients (%) [2]: 0 | DIARRHEA, patients (%) [2]: 3 (60) | DYSPNEA, patients (%) [2]: 1 (20) | EDEMA LIMBS, patients (%) [2]: 1 (20) | ELECTROCARDIOGRAM QT CORRECTED INTERVAL PROLONGED, patients (%) [2]: 4 (80) | FATIGUE, patients (%) [2]: 3 (60) | FEBRILE NEUTROPENIA, patients (%) [2]: 0 | HYPERGLYCEMIA, patients (%) [2]: 1 (20) | HYPERTENSION, patients (%) [2]: 1 (20) | HYPOALBUMINEMIA, patients (%) [2]: 2 (40) | HYPOKALEMIA, patients (%) [2]: 1 (20) | HYPOPHOSPHATEMIA, patients (%) [2]: 0 | HYPOXIA, patients (%) [2]: 0 | LUNG INFECTION, patients (%) [2]: 0 | LYMPHOCYTE COUNT DECREASED, patients (%) [2]: 1 (20) | MUCOSITIS ORAL, patients (%) [2]: 2 (40) | NAUSEA, patients (%) [2]: 3 (60) | NEUTROPHIL COUNT DECREASED, patients (%) [2]: 0 | PLATELET COUNT DECREASED, patients (%) [2]: 0 | PLEURAL EFFUSION, patients (%) [2]: 1 (20) | PRURITUS, patients (%) [2]: 4 (80) | RASH MACULO-PAPULAR, patients (%) [2]: 1 (20) | RASH, patients (%) [2]: 2 (40) | RESPIRATORY FAILURE, patients (%) [2]: 0 | VOMITING, patients (%) [2]: 0 | WHITE BLOOD CELL DECREASED, patients (%) [2]: 0 | ELECTROCARDIOGRAM QT CORRECTED INTERVAL PROLONGED, patients (%) (Cohort A: 200mg, cytarabine, Daunorubicin (n=5), grade 1&2, listed as pacritinib): Four | ACTIVATED PARTIAL THROMBOPLASTIN TIME PROLONGED, patients (%) [3]: 0 | ANEMIA, patients (%) [3]: 3 (60) | ANOREXIA, patients (%) [3]: 0 | CONSTIPATION, patients (%) [3]: 0 | DIARRHEA, patients (%) [3]: 0 | DYSPNEA, patients (%) [3]: 0 | EDEMA LIMBS, patients (%) [3]: 0 | ELECTROCARDIOGRAM QT CORRECTED INTERVAL PROLONGED, patients (%) [3]: 0 | FATIGUE, patients (%) [3]: 0 | FEBRILE NEUTROPENIA, patients (%) [3]: 3 (60) | HYPERGLYCEMIA, patients (%) [3]: 0 | HYPERTENSION, patients (%) [3]: 1 (20) | HYPOALBUMINEMIA, patients (%) [3]: 0 | HYPOKALEMIA, patients (%) [3]: 0 | HYPOPHOSPHATEMIA, patients (%) [3]: 1 (20) | HYPOXIA, patients (%) [3]: 2 (40) | LUNG INFECTION, patients (%) [3]: 1 (20) | LYMPHOCYTE COUNT DECREASED, patients (%) [3]: 2 (40) | MUCOSITIS ORAL, patients (%) [3]: 0 | NAUSEA, patients (%) [3]: 0 | NEUTROPHIL COUNT DECREASED, patients (%) [3]: 2 (40) | PLATELET COUNT DECREASED, patients (%) [3]: 5 (100) | PLEURAL EFFUSION, patients (%) [3]: 0 | PRURITUS, patients (%) [3]: 0 | RASH MACULO-PAPULAR, patients (%) [3]: 1 (20) | RASH, patients (%) [3]: 0 | RESPIRATORY FAILURE, patients (%) [3]: 2 (40) | VOMITING, patients (%) [3]: 0 | WHITE BLOOD CELL DECREASED, patients (%) [3]: 4 (80) | ACTIVATED PARTIAL THROMBOPLASTIN TIME PROLONGED, patients (%) [4]: 0 | ANEMIA, patients (%) [4]: 2 (100) | ANOREXIA, patients (%) [4]: 0 | CONSTIPATION, patients (%) [4]: 1 (50) | DIARRHEA, patients (%) [4]: 0 | DYSPNEA, patients (%) [4]: 1 (50) | EDEMA LIMBS, patients (%) [4]: 0 | ELECTROCARDIOGRAM QT CORRECTED INTERVAL PROLONGED, patients (%) [4]: 0 | FATIGUE, patients (%) [4]: 0 | FEBRILE NEUTROPENIA, patients (%) [4]: 0 | HYPERGLYCEMIA, patients (%) [4]: 1 (50) | HYPERTENSION, patients (%) [4]: 1 (50) | HYPOALBUMINEMIA, patients (%) [4]: 0 | HYPOKALEMIA, patients (%) [4]: 1 (50) | HYPOPHOSPHATEMIA, patients (%) [4]: 0 | HYPOXIA, patients (%) [4]: 0 | LUNG INFECTION, patients (%) [4]: 0 | LYMPHOCYTE COUNT DECREASED, patients (%) [4]: 1 (50) | MUCOSITIS ORAL, patients (%) [4]: 0 | NAUSEA, patients (%) [4]: 1 (50) | NEUTROPHIL COUNT DECREASED, patients (%) [4]: 1 (50) | PLATELET COUNT DECREASED, patients (%) [4]: 1 (50) | PLEURAL EFFUSION, patients (%) [4]: 0 | PRURITUS, patients (%) [4]: 0 | RASH MACULO-PAPULAR, patients (%) [4]: 0 | RASH, patients (%) [4]: 0 | RESPIRATORY FAILURE, patients (%) [4]: 0 | VOMITING, patients (%) [4]: 1 (50) | WHITE BLOOD CELL DECREASED, patients (%) [4]: 1 (50) | ACTIVATED PARTIAL THROMBOPLASTIN TIME PROLONGED, patients (%) [5]: 0 | ANEMIA, patients (%) [5]: 1 (50) | ANOREXIA, patients (%) [5]: 0 | CONSTIPATION, patients (%) [5]: 1 (50) | DIARRHEA, patients (%) [5]: 0 | DYSPNEA, patients (%) [5]: 1 (50) | EDEMA LIMBS, patients (%) [5]: 0 | ELECTROCARDIOGRAM QT CORRECTED INTERVAL PROLONGED, patients (%) [5]: 0 | FATIGUE, patients (%) [5]: 0 | FEBRILE NEUTROPENIA, patients (%) [5]: 0 | HYPERGLYCEMIA, patients (%) [5]: 1 (50) | HYPERTENSION, patients (%) [5]: 1 (50) | HYPOALBUMINEMIA, patients (%) [5]: 0 | HYPOKALEMIA, patients (%) [5]: 0 | HYPOPHOSPHATEMIA, patients (%) [5]: 0 | HYPOXIA, patients (%) [5]: 0 | LUNG INFECTION, patients (%) [5]: 0 | LYMPHOCYTE COUNT DECREASED, patients (%) [5]: 0 | MUCOSITIS ORAL, patients (%) [5]: 0 | NAUSEA, patients (%) [5]: 0 | NEUTROPHIL COUNT DECREASED, patients (%) [5]: 0 | PLATELET COUNT DECREASED, patients (%) [5]: 0 | PLEURAL EFFUSION, patients (%) [5]: 0 | PRURITUS, patients (%) [5]: 0 | RASH MACULO-PAPULAR, patients (%) [5]: 0 | RASH, patients (%) [5]: 0 | RESPIRATORY FAILURE, patients (%) [5]: 0 | VOMITING, patients (%) [5]: 1 (50) | WHITE BLOOD CELL DECREASED, patients (%) [5]: 0 | ACTIVATED PARTIAL THROMBOPLASTIN TIME PROLONGED, patients (%) [6]: 0 | ANEMIA, patients (%) [6]: 1 (50) | ANOREXIA, patients (%) [6]: 0 | CONSTIPATION, patients (%) [6]: 0 | DIARRHEA, patients (%) [6]: 0 | DYSPNEA, patients (%) [6]: 0 | EDEMA LIMBS, patients (%) [6]: 0 | ELECTROCARDIOGRAM QT CORRECTED INTERVAL PROLONGED, patients (%) [6]: 0 | FATIGUE, patients (%) [6]: 0 | FEBRILE NEUTROPENIA, patients (%) [6]: 0 | HYPERGLYCEMIA, patients (%) [6]: 0
